# Measured values from the NIST ThermoML archive (doi:10.1016/j.jct.2010.04.011).
# Numbers after ± are expanded uncertainties.
# Assay: activity coefficient (dimensionless); of the first substance listed, at infinite dilution; xn = mol fraction of the nth substance listed
# Details: 298 K; 101 kPa; Liquid; Chromatography; x1 = 0
row,Compound,activity coefficient
1,"C=CCCC=C [1,5-hexadiene] + CCCCCCCCCCCCCCCC",0.8 ± 0.16
2,"C=CCCC=C [1,5-hexadiene] + C[S+](C)[O-]",11.6 ± 2.4
3,C#CCCCCC [1-heptyne] + C[S+](C)[O-],6.9 ± 1.4
4,C#CCCCCCC [1-octyne] + C[S+](C)[O-],10.2 ± 2.1
5,C=CC1CC=CCC1 (configuration not stated) [4-ethenylcyclohexene] + C[S+](C)[O-],20.7 ± 4.2
6,ClC(Cl)(Cl)Br [bromotrichloromethane] + C[S+](C)[O-],2.1 ± 0.4
7,C1CCCCCCC1 [cyclooctane] + C[S+](C)[O-],63.3 ± 13
8,CC1CCCCC1 [methylcyclohexane] + C[S+](C)[O-],49.2 ± 10
9,ClC(Cl)=C(Cl)Cl [tetrachloroethene] + C[S+](C)[O-],10.5 ± 2.1

# Other lines, results leading:
row,activity coefficient,Compound
1,5.7 ± 1.2,"C1=CC=CCC=C1 [1,3,5-cycloheptatriene] + C[S+](C)[O-]"
2,15.1 ± 3.1,Cc1ccc(C(C)C)cc1 [1-(1-methylethyl)-4-methylbenzene] + C[S+](C)[O-]
3,4.1 ± 0.8,C#CCCCC [1-hexyne] + C[S+](C)[O-]
4,14.9 ± 3,C1=CCCCC1 [cyclohexene] + C[S+](C)[O-]
5,7 ± 1.4,C1=CCCC1 [cyclopentene] + C[S+](C)[O-]
6,29.5 ± 6,CC1CCCC1 [methylcyclopentane] + C[S+](C)[O-]

# Same assay, conditions: 298 K; Gas; Chromatography; x1 = 0
row,Compound,activity coefficient
1,C=CC1CC=CCC1 (configuration not stated) [4-ethenylcyclohexene] + CCCCCCCCCCCCCCCC,0.96 ± 0.19
2,C1CCCCCCC1 [cyclooctane] + CCCCCCCCCCCCCCCC,0.96 ± 0.19
